Source: patent publication US10828317B2, “Method of treating bacterial infections” (priority 2016, dated 2020)
Read-outs that look alike come from different tables or passages of the source.

Legend:
S. marescens EN0454 = assay: MIC; assay type: cell-based, Serratia marescens; details: Serratia, read-out: MIC
M. luteus EN0455 = assay: MIC; assay type: cell-based, Micrococcus luteus; details: Micrococcus luteus, read-out: MIC
P. mirabilis EN0457 = assay: MIC; assay type: cell-based, Proteus mirabilis; details: Proteus mirabilis, read-out: MIC
E. coli B EN0458 = assay: MIC; assay type: cell-based, Escherichia coli B; details: Escherichia coli, read-out: MIC
P. aeruginosa EN0459 = assay: MIC; assay type: cell-based, Pseudomonas aeruginosa; details: Pseudomonas aeruginosa, read-out: MIC
P. aeruginosa EN0460 = assay: MIC; assay type: cell-based, Pseudomonas aeruginosa; details: Pseudomonas aeruginosa, read-out: MIC
E. aerogenes EN0461 = assay: MIC; assay type: cell-based, Enterobacter aerogenes; details: Klebsiella aerogenes, read-out: MIC
K. pneumoniae EN0463 = assay: MIC; assay type: cell-based, Klebsiella pneumoniae; details: Klebsiella pneumoniae, read-out: MIC
S. epidermidis EN0456 = assay: MIC; assay type: cell-based, Staphylococcus epidermidis; details: Staphylococcus epidermidis, read-out: MIC
Citrobacter sp. EN0465 = assay: MIC; assay type: cell-based; details: Citrobacter, read-out: MIC
[1] = test system: A. pittii or A. nosocomialis EN0180; assay: MIC; assay type: cell-based, Acinetobacter pittii or nosocomialis; details: read-out: MIC
P. aeruginosa EN0422 = assay: MIC; assay type: cell-based, Pseudomonas aeruginosa; details: Pseudomonas aeruginosa, read-out: MIC
P. mirabilis ST19 EN0445 = assay: MIC; assay type: cell-based, Proteus mirabilis; details: Proteus mirabilis, read-out: MIC
E. coli EN001 = assay: MIC, WT (EN001 = EN0001, ATCC 25922); assay type: cell-based, Escherichia coli

Measured: MIC

COc1cc(Cc2cnc(N)nc2N)cc(OC)c1OC [Trimethoprim, trimethoprim]
0.06 µg/mL: K. pneumoniae EN0463; EN0463, combination AZT+trimethoprim+uridine, Table 6 | S. epidermidis EN0456; EN0456, combination AZT+trimethoprim+uridine, Table 6
1 µg/mL: S. marescens EN0454; EN0454, combination AZT+trimethoprim+uridine, Table 6 | E. aerogenes EN0461; EN0461, combination didanosine+trimethoprim+uridine, Table 10 | P. mirabilis ST19 EN0445; ST19EN0445, Combination 1 AZT+trimethoprim+uridine, Table 16 | P. mirabilis ST19 EN0445; ST19EN0445, combination FdUrd+trimethoprim+uridine, Table 8
< 0.016 µg/mL: S. epidermidis EN0456; EN0456, combination FdUrd+trimethoprim+uridine, Table 8
0.064 µg/mL: E. coli B EN0458; BEN0458, combination FdUrd+trimethoprim+uridine, Table 8 | E. coli B EN0458; BEN0458, combination didanosine+trimethoprim+uridine, Table 10 | S. epidermidis EN0456; EN0456, Combination 1 AZT+trimethoprim+uridine, Table 16 | E. coli EN001; Escherichia coli, EN001, Combination 1 AZT+trimethoprim+uridine, Table 16, read-out: MIC
> 8 µg/mL: S. marescens EN0454; EN0454, combination FdUrd+trimethoprim+uridine, Table 8 | S. marescens EN0454; EN0454, combination didanosine+trimethoprim+uridine, Table 10 | P. aeruginosa EN0459; EN0459, combination FdUrd+trimethoprim+uridine, Table 8 | P. aeruginosa EN0459; EN0459, combination didanosine+trimethoprim+uridine, Table 10 | P. aeruginosa EN0460; EN0460, combination FdUrd+trimethoprim+uridine, Table 8 | P. aeruginosa EN0460; EN0460, combination didanosine+trimethoprim+uridine, Table 10 | Citrobacter sp. EN0465; SP.EN0465, combination FdUrd+trimethoprim+uridine, Table 8 | Citrobacter sp. EN0465; SP.EN0465, combination didanosine+trimethoprim+uridine, Table 10 | [1]; combination didanosine+trimethoprim+uridine, Table 10 | P. aeruginosa EN0422; EN0422, Combination 1 AZT+trimethoprim+uridine, Table 16 | P. aeruginosa EN0422; EN0422, combination FdUrd+trimethoprim+uridine, Table 8 | P. aeruginosa EN0422; EN0422, combination didanosine+trimethoprim+uridine, Table 10
0.25 µg/mL: E. aerogenes EN0461; EN0461, Combination 1 AZT+trimethoprim+uridine, Table 16 | E. aerogenes EN0461; EN0461, combination AZT+trimethoprim+uridine, Table 6 | E. coli EN001; Escherichia coli, EN001, combination FdUrd+trimethoprim+uridine, Table 8, read-out: MIC | E. coli EN001; Escherichia coli, EN001, combination didanosine+trimethoprim+uridine, Table 10, read-out: MIC
0.5 µg/mL: K. pneumoniae EN0463; EN0463, combination FdUrd+trimethoprim+uridine, Table 8 | K. pneumoniae EN0463; EN0463, combination didanosine+trimethoprim+uridine, Table 10 | E. coli EN001; combination FdUrd+trimethoprim+uridine, Table 19 | E. coli EN001; combination didanosine+trimethoprim+uridine, Table 20
> 4 µg/mL: S. marescens EN0454; EN0454, Combination 1 AZT+trimethoprim+uridine, Table 16 | S. marescens EN0454; EN0454, Combination 2 AZT+trimethoprim+uridine+thymidine, Table 16 | M. luteus EN0455; EN0455, Combination 2 AZT+trimethoprim+uridine+thymidine, Table 16 | P. mirabilis EN0457; EN0457, Combination 2 AZT+trimethoprim+uridine+thymidine, Table 16 | P. aeruginosa EN0459; EN0459, Combination 1 AZT+trimethoprim+uridine, Table 16 | P. aeruginosa EN0459; EN0459, Combination 2 AZT+trimethoprim+uridine+thymidine, Table 16 | P. aeruginosa EN0459; EN0459, combination AZT+trimethoprim+uridine, Table 6 | P. aeruginosa EN0460; EN0460, Combination 1 AZT+trimethoprim+uridine, Table 16 | P. aeruginosa EN0460; EN0460, Combination 2 AZT+trimethoprim+uridine+thymidine, Table 16 | P. aeruginosa EN0460; EN0460, combination AZT+trimethoprim+uridine, Table 6 | Citrobacter sp. EN0465; SP.EN0465, Combination 1 AZT+trimethoprim+uridine, Table 16 | Citrobacter sp. EN0465; SP.EN0465, Combination 2 AZT+trimethoprim+uridine+thymidine, Table 16 | Citrobacter sp. EN0465; SP.EN0465, combination AZT+trimethoprim+uridine, Table 6 | [1]; Combination 1 AZT+trimethoprim+uridine, Table 16 | [1]; Combination 2 AZT+trimethoprim+uridine+thymidine, Table 16 | [1]; combination AZT+trimethoprim+uridine, Table 6 | P. aeruginosa EN0422; EN0422, Combination 2 AZT+trimethoprim+uridine+thymidine, Table 16 | P. aeruginosa EN0422; EN0422, combination AZT+trimethoprim+uridine, Table 6 | P. mirabilis ST19 EN0445; ST19EN0445, Combination 2 AZT+trimethoprim+uridine+thymidine, Table 16 | P. mirabilis ST19 EN0445; ST19EN0445, combination AZT+trimethoprim+uridine, Table 6
8 µg/mL: [1]; combination FdUrd+trimethoprim+uridine, Table 8
2 µg/mL: M. luteus EN0455; EN0455, Combination 1 AZT+trimethoprim+uridine, Table 16 | M. luteus EN0455; EN0455, combination AZT+trimethoprim+uridine, Table 6 | P. mirabilis EN0457; EN0457, Combination 1 AZT+trimethoprim+uridine, Table 16 | P. mirabilis EN0457; EN0457, combination AZT+trimethoprim+uridine, Table 6 | P. mirabilis EN0457; EN0457, combination FdUrd+trimethoprim+uridine, Table 8 | E. aerogenes EN0461; EN0461, Combination 2 AZT+trimethoprim+uridine+thymidine, Table 16 | E. aerogenes EN0461; EN0461, combination FdUrd+trimethoprim+uridine, Table 8 | S. epidermidis EN0456; EN0456, Combination 2 AZT+trimethoprim+uridine+thymidine, Table 16 | P. mirabilis ST19 EN0445; ST19EN0445, combination didanosine+trimethoprim+uridine, Table 10
4 µg/mL: M. luteus EN0455; EN0455, combination FdUrd+trimethoprim+uridine, Table 8 | M. luteus EN0455; EN0455, combination didanosine+trimethoprim+uridine, Table 10 | P. mirabilis EN0457; EN0457, combination didanosine+trimethoprim+uridine, Table 10
